Measurements reported in patent publication US9617602B2, “Methods and compositions for determining resistance to androgen receptor therapy” (Aragon Pharmaceuticals, Inc., priority 2012, dated 2017).

Tests used:
LNCaP/AR(cs) cells = test: Endogenous gene transcriptional assay (real-time PCR of androgen responsive genes); type: cell-based, human;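 for ORM1 expression, agonist transcription: LNCaP/AR(cs) cells without added R1881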;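 for PLD1 expression, agonist transcription: LNCaP/AR(cs) cells without added R1881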;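 for PSA expression, agonist transcription: LNCaP/AR(cs) cells without added R1881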;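 for SLUG expression, agonist transcription: LNCaP/AR(cs) cells without added R1881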;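 for TMPRSS2 expression, agonist transcription: LNCaP/AR(cs) cells without added R1881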
LNCaP/AR-Luc cells = test: as above; type: cell-based, human; conditions: 1 nM R1881 or 30 μM compound, vehicle=1.00
Method: Total RNA was isolated using the Aurum™ total RNA isolation kit (BIO-RAD, Hercules, Calif.). RNA (1 μg) was reverse transcribed using the iScript cDNA synthesis kit (BIO-RAD, Hercules, Calif.) to produce cDNA. Real-time PCR was performed using the Applied Biosystems 7900HT instrument and SYBR Green PCR Master Mix (Applied Biosystems, Foster City, Calif.). PCR reactions were performed in 6 μL according to the manufacturer's protocol and a thermocycle protocol of 95° C. for 10 minutes followed by 40 cycles of 95° C. for 15 seconds and 58° C. for 1 minute. Androgen responsive gene (PSA, SLUG, TMPRSS2, STEAP4, FKBP5, ORM1, NOV, FASN, NKX3.1, AMIGO2, BDNF, CAMK2N1, HPGD, NCAPD3, PLD1) expression was normalized to GAPDH expression and expressed relative to vehicle treatment of the parental cell line.
Gene expression was normalized to GAPDH as described above.

[1] = Table 4A, 1 nM R1881 or 30 μM compound, vehicle=1.00

## CNC(=O)c1ccc(N2C(=S)N(c3cnc(C#N)c(C(F)(F)F)c3)C(=O)C23CCC3)cc1F [ARN-509]
LNCaP/AR(cs) cells; [1]
  SLUG gene expression: 1.03
  STEAP4 gene expression: 0.90
  TMPRSS2 gene expression: 1.06
LNCaP/AR(cs) cells; −R1881, 0.3 μM
  AMIGO2 expression, agonist transcription: 1.14
  BDNF expression, agonist transcription: 1.15
  CAM2KN1 expression, agonist transcription: 0.90
  FASN expression, agonist transcription: 0.46
  FKBP5 expression, agonist transcription: 0.99
  HPGD expression, agonist transcription: 0.81
  NCAPD3 expression, agonist transcription: 0.72
  NKX3.1 expression, agonist transcription: 1.11
  NOV expression, agonist transcription: 1.12
  ORM1 expression, agonist transcription: 1.37
  PLD1 expression, agonist transcription: 1.28
  PSA expression, agonist transcription: 0.44
  SLUG expression, agonist transcription: 0.38
  STEAP4 expression, agonist transcription: 0.94
  TMPRSS2 expression, agonist transcription: 0.99
LNCaP/AR(cs) cells; −R1881, 1 μM
  AMIGO2 expression, agonist transcription: 0.69
  BDNF expression, agonist transcription: 0.93
  CAM2KN1 expression, agonist transcription: 0.76
  FASN expression, agonist transcription: 0.40
  FKBP5 expression, agonist transcription: 0.71
  HPGD expression, agonist transcription: 0.56
  NCAPD3 expression, agonist transcription: 0.74
  NKX3.1 expression, agonist transcription: 0.68
  NOV expression, agonist transcription: 1.00
  ORM1 expression, agonist transcription: 1.79
  PLD1 expression, agonist transcription: 0.66
  PSA expression, agonist transcription: 0.49
  SLUG expression, agonist transcription: 0.42
  STEAP4 expression, agonist transcription: 0.77
  TMPRSS2 expression, agonist transcription: 0.64
LNCaP/AR(cs) cells; −R1881, 3 μM
  AMIGO2 expression, agonist transcription: 0.89
  BDNF expression, agonist transcription: 1.03
  CAM2KN1 expression, agonist transcription: 0.99
  FASN expression, agonist transcription: 0.42
  FKBP5 expression, agonist transcription: 0.91
  HPGD expression, agonist transcription: 0.78
  NCAPD3 expression, agonist transcription: 0.73
  NKX3.1 expression, agonist transcription: 0.73
  NOV expression, agonist transcription: 1.11
  ORM1 expression, agonist transcription: 1.20
  PLD1 expression, agonist transcription: 0.88
  PSA expression, agonist transcription: 0.58
  SLUG expression, agonist transcription: 0.52
  STEAP4 expression, agonist transcription: 1.05
  TMPRSS2 expression, agonist transcription: 1.04
LNCaP/AR(cs) cells; −R1881, 10 μM
  AMIGO2 expression, agonist transcription: 0.65
  BDNF expression, agonist transcription: 1.03
  CAM2KN1 expression, agonist transcription: 0.78
  FASN expression, agonist transcription: 0.41
  FKBP5 expression, agonist transcription: 0.75
  HPGD expression, agonist transcription: 0.61
  NCAPD3 expression, agonist transcription: 0.74
  NKX3.1 expression, agonist transcription: 0.85
  NOV expression, agonist transcription: 0.98
  ORM1 expression, agonist transcription: 0.97
  PLD1 expression, agonist transcription: 0.65
  PSA expression, agonist transcription: 0.61
  SLUG expression, agonist transcription: 0.56
  STEAP4 expression, agonist transcription: 0.56
  TMPRSS2 expression, agonist transcription: 0.62
LNCaP/AR(cs) cells; −R1881, 30 μM
  AMIGO2 expression, agonist transcription: 2.41
  BDNF expression, agonist transcription: 1.80
  CAM2KN1 expression, agonist transcription: 1.56
  FASN expression, agonist transcription: 1.30
  FKBP5 expression, agonist transcription: 1.87
  HPGD expression, agonist transcription: 1.86
  NCAPD3 expression, agonist transcription: 1.34
  NKX3.1 expression, agonist transcription: 2.24
  NOV expression, agonist transcription: 2.07
  ORM1 expression, agonist transcription: 1.35
  PLD1 expression, agonist transcription: 1.33
  PSA expression, agonist transcription: 1.13
  SLUG expression, agonist transcription: 1.36
  STEAP4 expression, agonist transcription: 1.01
  TMPRSS2 expression, agonist transcription: 2.78
LNCaP/AR-Luc cells
  AMIGO2 gene expression: 1.13
  BDNF gene expression: 1.17
  CAM2KN1 gene expression: 1.13
  FASN gene expression: 1.08
  FKBP5 gene expression: 1.16
  HPGD gene expression: 1.88
  NKX3.1 gene expression: 1.14
  NOV gene expression: 2.55
  ORM1 gene expression: 1.27
  PLD1 gene expression: 1.45
  PSA gene expression: 0.60
  SLUG gene expression: 1.13
  STEAP4 gene expression: 0.88
  TMPRSS2 gene expression: 0.74
